# Results reported in US8067422B2, “Crystal form of phenylamino pyrimidine derivatives” (Natco Pharma Limited, priority 2008, dated 2011).
# Entries after “also recorded” stand apart in the source; their conditions may differ. Counter-ions that a name gives are not always drawn.
# Assays:
# [1] = Thermodynamic stability of crystal forms at room temperature; assay type: physicochemical
# From the text: This is indicative of the greater stability of the Form-III crystal form.
# [2] = Heat stability of Form-III crystal form (XRPD after heating); assay type: physicochemical; settings: for Polymorph form detected after heating: 6 hours, XRPD
# From the text: Pure Form-III crystal form (1 gm) prepared by the present process was placed in a boiling tube and heated gradually in oil bath. Then the substance was examined by XRPD.
# [3] = Stability of Form-III crystal form under accelerated stress conditions in bulk and formulated capsule; assay type: physicochemical
# [4] = tested on: K562 cells; experiment: Anti-CML activity in nude mice implanted with K562 cells (leukemia growth index); assay type: in vivo; settings: ip injections
# From the text: Nude mice (nu/nu) were implanted with K562 cells (1×10^6) via tail vein.
# Blood was drawn via the tail vein. Quantitative analysis of LGI was graphically represented.
# [5] = tested on: K562 cells; experiment: Spleenic enlargement and spleen Crk immunocytochemistry in K562 implanted nude mice; assay type: in vivo; settings: ip injections
# Method: Control mice were sacrificed on day 42 when secondary leukemia symptoms were observed, such as abdominal swelling and lack of circulation in the peripherals causing loss of digits with red spots under the skin surface. Spleen and any secondary tumors were harvested, fixed in formaldehyde and paraffin embedded as per standard protocols. Paraffin section were obtained and processed for immunocytochemistry. The rehydrated sections were treated with 0.3% H2O2 to inactivate any native peroxidases prior to immuno-probing. The sections were blocked with filter sterilized (0.22 μm) 1% BSA-PBS at room temperature for 1 h. Following blocking, the sections were immuno-probed with a human specific anti-Crk monoclonal primary antibody raised in rabbit against a synthetic peptide corresponding to residues in the SH2 domain, near the N-term of human CrkL protein (Abcam, Cambridge, Mass., USA) in 1% BSA-PBS overnight. Secondary antibody (anti-rabbit) conjugated to HRP was used to detect the presence of primary antibody. The sections were briefly rinsed three times in PBS solution after immuno-probing with secondary antibody, and DAB HRP substrate was added per manufacture's instructions (Sigma St Louis Mo. USA). The reaction was allowed to proceed until sharp contrast between positive and negative controls was observed. For negative controls primary antibody were eliminated. Leukemic mice spleen served as positive controls.
# Mice were sacrificed after a decrease in LGI was observed and spleen harvested. […] Control mice also developed random subcutaneous tumors showing Crk expression, indicative of the presence of K562 cells.
# [6] = tested on: K562 luciferase expressing cells; experiment: Leukemic survival study in nude mice implanted with K562 luciferase expressing cells; assay type: in vivo
# From the text: K562 luciferase expressing cells were implanted intraperitoneally into nude mice; the mice were scanned using the xenogeny IVIS image station after ip injections of luciferin does determine implantations. Drug treatment was started as in previous studies day 15 after implantation. The animals were given treatment till day 42, after which drug treatment was stopped and survival of the animals determined as per the animal care regulations. […] Drug treatment was withdrawn on day 42 post implantation and survival of animals determined.
# [7] = tested on: ZR71 breast cancer cells; experiment: Matrigel invasion assay (modified Boyden chamber), ZR-71; assay type: cell-based
# Method: (§1) The in vitro invasiveness of 4910, 5310 and U87 glioma cells and MDAMB231 and ZR71 breast cancer cells in the presence of specified concentrations of compounds were assessed using a modified Boyden chamber assay. Cells were treated with these compounds for 48 h. 1×10^6 cells were suspended in 600 μl of serum-free medium supplemented with 0.2% BSA and placed in the upper compartment of the transwell chambers (Corning Costar Fischer Scientific Cat #07-200-158, Pittsburgh Pa.) coated with Matrigel (0.7 mg/ml). The lower compartment of the chamber was filled with 200 μl of serum medium and the cells were allowed to migrate for 24 h. After incubation, the cells were fixed and stained with Hema-3 and quantified as previously described (Mohanam et al. 1993). The migrated cells were imaged microscopically to determine the reduction in invasiveness induced by the compounds of this invention.
# [8] = tested on: MDAMB231 breast cancer cells; experiment: Matrigel invasion assay (modified Boyden chamber), MDA-MB-231; assay type: cell-based
# Method: as §1
# [9] = tested on: 4910 glioma cells; experiment: Matrigel invasion assay (modified Boyden chamber), 4910; assay type: cell-based, human
# Method: as §1
# [10] = tested on: 5310 glioma cells; experiment: Matrigel invasion assay (modified Boyden chamber), 5310; assay type: cell-based
# Method: as §1
# [11] = tested on: U87 glioma cells; experiment: Matrigel invasion assay (modified Boyden chamber), U87; assay type: cell-based
# Method: as §1
# [12] = tested on: 4910 human glioma xenograft cells; experiment: Glioma radiation study, nude mice intracranially implanted with 4910 cells; assay type: in vivo; settings: of 10 animals; without radiation; day 40 post implantation
# Method: Nude mice were intracranially implanted with 4910 human glioma xenograft cells (1×10^6 cells). Ten days after implantation mice were treated with AN019, AN024 or temozolomide with or without radiation (5 Gy/week). The experiment was terminated at day 40 post implantation.
# [13] = drug treatment withdrawn on day 42
compound,measurement,setting,value
"Cc1ccc(NC(=O)c2cc(C(F)(F)F)cc(C(F)(F)F)c2)cc1Nc1nccc(-c2cccnc2)n1 [Form-I, (3,5-bis trifluoromethyl)-N-[4-methyl-3-(4-pyridin-3yl-pyrimidin-2ylamino)-phenyl]-benzamide]",Stability of crystal form,[1],metastable
"Cc1ccc(NC(=O)c2cc(C(F)(F)F)cc(C(F)(F)F)c2)cc1Nc1nccc(-c2cccnc2)n1 [Form-II, (3,5-bis trifluoromethyl)-N-[4-methyl-3-(4-pyridin-3yl-pyrimidin-2ylamino)-phenyl]-benzamide]",Stability of crystal form,[1],metastable
"Cc1ccc(NC(=O)c2cc(C(F)(F)F)cc(C(F)(F)F)c2)cc1Nc1nccc(-c2cccnc2)n1 [Form-III, (3,5-bis trifluoromethyl)-N-[4-methyl-3-(4-pyridin-3yl-pyrimidin-2ylamino)-phenyl]-benzamide]",Polymorph form detected after heating,[2]; 110° C.,Form-III
same,Polymorph form detected after heating,[2]; 120° C.,Form-III
same,Polymorph form detected after heating,[2]; 130° C.,Form-III
same,Heat stability,[2]; heated at 130° C. for 6 hours,non-metastable and stable; also recorded: stable to heat
same,"Polymorph content of bulk compound of formula I, polymorph form detected",[3]; 0 Month at 40 ± 2° C./75 ± 5% RH,Form-III
same,"Polymorph content of bulk compound of formula I, polymorph form detected",[3]; 1 Month at 40 ± 2° C./75 ± 5% RH,Form-III
same,"Polymorph content of bulk compound of formula I, polymorph form detected",[3]; 2 Months at 40 ± 2° C./75 ± 5% RH,Form-III
same,"Polymorph content of bulk compound of formula I, polymorph form detected",[3]; 3 Months at 40 ± 2° C./75 ± 5% RH,Form-III
same,"Polymorph content of bulk compound of formula I, polymorph form detected",[3]; 6 Months at 40 ± 2° C./75 ± 5% RH,Form-III
same,Stability of crystal form,[1],thermodynamically stable
"Cc1ccc(NC(=O)c2ccc(CN3CCN(C)CC3)cc2)cc1Nc1nccc(-c2cccnc2)n1 [Imatinib, Imatinib mesylate, reference compound]","Physiological, phenotypic or behavioral abnormality",[4],"no abnormal physiological, phenotypic or behavioral abnormality"
same,Crk expression in spleen (immunohistochemistry),[5],few colonies with low to undetectable expression levels of Crk; also recorded: localized expression regions of Crk expression
same,Spleenic enlargement (gross observation),[5],slight spleenic enlargement
same,"Blast cell count from blood smears, effectiveness after withdrawal of drug treatment",[6]; [13],ineffective
same,Leukemic symptoms after treatment withdrawal,[6]; [13],reoccurrences of leukemic symptoms
same,Mortality,"[6]; treatment day 15 to day 42, then withdrawn, 10 animals","mortality on day 55, 56, 57 and 58"
Cn1nnc2c(C(N)=O)ncn2c1=O [Temozolomide],±Change in invasion after radiation,[7]; ZR-71,−5%
same,+Radiation % Invasion,"[7]; ZR-71, with radiation, 48 h treatment",65%
same,−Radiation % Invasion,"[7]; ZR-71, without radiation, 48 h treatment",70%
same,±Change in invasion after radiation,[8]; MDA-MB-231,−13%
same,+Radiation % Invasion,"[8]; MDA-MB-231, with radiation, 48 h treatment",49%
same,−Radiation % Invasion,"[8]; MDA-MB-231, without radiation, 48 h treatment",62%
same,±Change in invasion after radiation,[9]; 4910,−22%
same,+Radiation % Invasion,"[9]; 4910, with radiation, 48 h treatment",73%
same,−Radiation % Invasion,"[9]; 4910, without radiation, 48 h treatment",95%
same,±Change in invasion after radiation,[10]; 5310,+13%
same,+Radiation % Invasion,"[10]; 5310, with radiation, 48 h treatment",63%
same,−Radiation % Invasion,"[10]; 5310, without radiation, 48 h treatment",50%
same,±Change in invasion after radiation,[11]; U87,+3%
same,+Radiation % Invasion,"[11]; U87, with radiation, 48 h treatment",93%
same,−Radiation % Invasion,"[11]; U87, without radiation, 48 h treatment",90%
same,Animals cured / complete absence of intracranial tumours,[12],3 animals
